We go through eleven molecules from ChEMBL document CHEMBL1201862, “PubChem BioAssay data set” (2004).

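Growth conditions: 96-well plates. Treatment: test compound, 48 hours, 5 concentrations. Analysis: linear interpolation between bracketing concentrations; unreached endpoints set to highest concentration. The concentration for 50% growth inhibition is given as GI50.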 Active and inactive are the calls of the source. Cut-off read from the data, not from the text of the source: active = GI50 up to about 1.1 µM and inactive = higher.

Test systems include A498; SK-MEL-28; CAKI-1; U-251; HOP-92; LOX IMVI; M14; HCT-116; UACC-257; SF-295; A549; SF-539; UO-31; SF-268; NCI-H460; IGROV-1; NCI/ADR-RES; SK-OV-3; HCC 2998; SR.
Common to all, as to assay: NCI-60 cell line screen, 48 h

Turning to `C=CCCON(C(=O)OC(C)(C)C)c1ccccc1`, the GI50 with A498, in the experiment on SK-MEL-28, in the experiment with CAKI-1, with U-251, in the experiment with HOP-92 and in the experiment with LOX IMVI was > 100 µM (inactive) in each case. In addition, the GI50 is > 100 µM (inactive) with M14; 44.6 µM (inactive) in the experiment with HCT-116; > 100 µM (inactive) in the experiment with UACC-257; > 100 µM (inactive) in the experiment with SF-295; > 100 µM (inactive) in the experiment with A549; > 100 µM (inactive) in the experiment with SF-539. Also, the GI50 with UO-31 is > 100 µM (inactive); in the experiment on SF-268, > 100 µM (inactive); in the experiment with NCI-H460, > 100 µM (inactive); with IGROV-1, > 100 µM (inactive); with NCI/ADR-RES it was 67 µM (inactive); with SK-OV-3 it was > 100 µM (inactive).

For `COc1cc(C2c3cc4c(cc3[C@@H](Nc3cccc(CO)c3)C3COC(=O)[C@H]23)OCO4)cc(OC)c1O` (stereo not given in full), the GI50 in the experiment on A498 is 0.293 µM (active); with SK-MEL-28, 2.24 µM (inactive); with CAKI-1, 0.205 µM (active); with U-251, 0.516 µM (active); in the experiment with HOP-92, 0.569 µM (active); in the experiment on LOX IMVI, 0.438 µM (active). Further, the GI50 in the experiment with HCT-116 was 0.624 µM (active); with UACC-257 it was 0.173 µM (active); in the experiment on SF-295, 0.218 µM (active); with A549, < 0.0281 µM (active); with SF-539, 0.352 µM (active); in the experiment on UO-31 it was 0.541 µM (active). Moreover, the GI50 was 0.923 µM (active) in the experiment on SF-268; < 0.01 µM (active) in the experiment on NCI-H460; 1.62 µM (inactive) in the experiment with IGROV-1; 1.73 µM (inactive) in the experiment on HCC 2998; 1.34 µM (inactive) in the experiment with NCI/ADR-RES; 1.61 µM (inactive) in the experiment on SK-OV-3.

On to `OC1(c2ccc(Cl)cc2)c2ccc3ccccc3c2C2=N[C@H]3CCCC[C@@H]3N21` (stereo not given in full), for which the GI50 was 20.3 µM (inactive) in the experiment on A498; > 100 µM (inactive) in the experiment on SK-MEL-28; 12.2 µM (inactive) with CAKI-1; 5.82 µM (inactive) in the experiment with U-251; 16.9 µM (inactive) in the experiment on HOP-92; 3.24 µM (inactive) with LOX IMVI. Further, the GI50 is 2.52 µM (inactive) with M14; 3.27 µM (inactive) in the experiment on HCT-116; 3.64 µM (inactive) with SF-295; 10 µM (inactive) with A549; 5.71 µM (inactive) with SF-539; 5.73 µM (inactive) in the experiment on UO-31. Moreover, the GI50 with SF-268 is 9.02 µM (inactive); with NCI-H460, 13.3 µM (inactive); in the experiment with IGROV-1, 13.5 µM (inactive); in the experiment with NCI/ADR-RES, 1.63 µM (inactive); in the experiment on SK-OV-3, 14 µM (inactive).

In the case of `NCC(Cl)C(O)c1c[nH]c(N)n1` (stereo not given), the GI50 is 0.147 µM (active) in the experiment with A498; 3.61 µM (inactive) in the experiment on SK-MEL-28; 0.269 µM (active) in the experiment on CAKI-1; 1.03 µM (active) with U-251; 5.46 µM (inactive) with HOP-92; 1.24 µM (inactive) in the experiment with LOX IMVI. Further, the GI50 in the experiment on HCT-116 is 0.392 µM (active); in the experiment on UACC-257 it was 3.05 µM (inactive); in the experiment on SF-295, 4.31 µM (inactive); in the experiment with A549 it was 0.136 µM (active); in the experiment with SF-539, 0.473 µM (active); with UO-31 it was 0.822 µM (active). Also, the GI50 in the experiment on SF-268 is 1.38 µM (inactive); with NCI-H460, 2.14 µM (inactive); in the experiment on IGROV-1, 0.245 µM (active); in the experiment on HCC 2998, 0.625 µM (active); with NCI/ADR-RES, 0.596 µM (active); in the experiment on SK-OV-3 it was 0.533 µM (active).

`CCCCCCCc1cscc1-c1cscc1Br`: the GI50 in the experiment with A498 is 86.7 µM (inactive); in the experiment with SK-MEL-28, 88.9 µM (inactive); with CAKI-1 it was 22.5 µM (inactive); with U-251 it was 39.3 µM (inactive); in the experiment with LOX IMVI it was 20.1 µM (inactive); in the experiment on M14, 31.9 µM (inactive). Also, the GI50 in the experiment on HCT-116 was 32.7 µM (inactive); in the experiment on UACC-257, 31.6 µM (inactive); with SF-295, 26 µM (inactive); in the experiment on A549, 27.2 µM (inactive); in the experiment on SF-539 it was > 100 µM (inactive); in the experiment with UO-31, 35.6 µM (inactive). In addition, the GI50 with SR is 19.6 µM (inactive); with SF-268, > 100 µM (inactive); in the experiment on NCI-H460, 39.4 µM (inactive); in the experiment on IGROV-1, 59.7 µM (inactive); in the experiment with HCC 2998, 27.7 µM (inactive); in the experiment with NCI/ADR-RES, 90.8 µM (inactive). Moreover, the GI50 in the experiment on SK-OV-3 is 45.9 µM (inactive).

Regarding `CC(C)C(=O)Cc1ccc2ccccc2n1`, the GI50 with A498, in the experiment with SK-MEL-28, in the experiment on CAKI-1, with U-251, in the experiment with HOP-92 and in the experiment with LOX IMVI was > 100 µM (inactive) throughout. Besides, the GI50 with M14 is > 100 µM (inactive); in the experiment with HCT-116 it was 95.5 µM (inactive); in the experiment with UACC-257, > 100 µM (inactive); with SF-295, > 100 µM (inactive); with A549 it was > 100 µM (inactive); in the experiment on UO-31 it was > 100 µM (inactive). Moreover, the GI50 in the experiment with SF-268 was > 100 µM (inactive); with NCI-H460, > 100 µM (inactive); with IGROV-1, 73.5 µM (inactive); with HCC 2998, > 100 µM (inactive); in the experiment on NCI/ADR-RES, > 100 µM (inactive); in the experiment with SK-OV-3 it was > 100 µM (inactive).

Take `O=c1oc2ccc(-n3c(=O)c4ccccc4c4ccccc4c3=O)cc2c2ccccc12`: the GI50 in the experiment on A498 is > 100 µM (inactive); with SK-MEL-28, > 100 µM (inactive); in the experiment with CAKI-1 it was > 100 µM (inactive); in the experiment with U-251, 20.8 µM (inactive); with HOP-92, 36.5 µM (inactive); in the experiment with LOX IMVI it was > 100 µM (inactive). The GI50 in the experiment with M14, with HCT-116, in the experiment with UACC-257, in the experiment with SF-295, with A549 and in the experiment on SF-539 was > 100 µM (inactive) each time. The GI50 with UO-31 is > 100 µM (inactive); with SF-268 it was 50 µM (inactive); with NCI-H460, > 100 µM (inactive); in the experiment with IGROV-1, > 100 µM (inactive); in the experiment with HCC 2998 it was > 100 µM (inactive); in the experiment with NCI/ADR-RES it was > 100 µM (inactive). Also, the GI50 in the experiment on SK-OV-3 is > 100 µM (inactive).

As to `Nc1nc(O)c2[nH]cnc2[n+]1[O-]`, the GI50 in the experiment on A498, in the experiment with SK-MEL-28, with U-251, in the experiment on HOP-92, with LOX IMVI and in the experiment with M14 was > 100 µM (inactive) in each case. Further, the GI50 with HCT-116, in the experiment with UACC-257, in the experiment on SF-295, in the experiment with A549, in the experiment with SF-539 and with UO-31 was > 100 µM (inactive) throughout. In addition, the GI50 in the experiment with SR is 75.3 µM (inactive); in the experiment on SF-268, > 100 µM (inactive); in the experiment on NCI-H460, > 100 µM (inactive); in the experiment with IGROV-1, > 100 µM (inactive); in the experiment on NCI/ADR-RES, > 100 µM (inactive); with SK-OV-3, > 100 µM (inactive).

Take `O=c1c2cc(I)ccc2nc(-c2cccs2)n1O`: the GI50 in the experiment with SK-MEL-28 was 65.8 µM (inactive); in the experiment on CAKI-1, 28.8 µM (inactive); with U-251, 30.1 µM (inactive); with HOP-92 it was 28.1 µM (inactive); in the experiment with LOX IMVI it was 28.1 µM (inactive); in the experiment with M14 it was 64.3 µM (inactive). Further, the GI50 in the experiment with HCT-116 is 38.8 µM (inactive); in the experiment with UACC-257, 59 µM (inactive); in the experiment on SF-295, 31.1 µM (inactive); in the experiment on A549, 22.6 µM (inactive); in the experiment with SF-539, 44.6 µM (inactive); in the experiment with UO-31, 49 µM (inactive). In addition, the GI50 in the experiment with SR is 33.8 µM (inactive); in the experiment with SF-268 it was 38.4 µM (inactive); in the experiment on NCI-H460 it was 36.6 µM (inactive); with IGROV-1 it was 30.5 µM (inactive); with HCC 2998 it was 30 µM (inactive); in the experiment with NCI/ADR-RES it was 41.1 µM (inactive).

Regarding `COc1cccc(C2c3cc4c(cc3OC(N3CCOCC3)C2C)OCO4)c1` (stereo not given), the GI50 is 25.5 µM (inactive) with HOP-92; 5.28 µM (inactive) in the experiment with LOX IMVI; 7.05 µM (inactive) in the experiment on M14; 13.2 µM (inactive) with HCT-116; 14.8 µM (inactive) with UACC-257; 9.64 µM (inactive) in the experiment on SF-295. Moreover, the GI50 in the experiment with A549 is 12.9 µM (inactive); with UO-31 it was 12.8 µM (inactive); with SR, 9.1 µM (inactive); in the experiment on SF-268 it was 16.7 µM (inactive); in the experiment on NCI-H460, 14.2 µM (inactive); with IGROV-1, 15 µM (inactive). The GI50 in the experiment with NCI/ADR-RES was 13.7 µM (inactive); with SK-OV-3, 17.9 µM (inactive).

For the molecule `COc1cc2c(cc1OC)C1(COc3cc(O)c(O)c(O)c3C1=O)C2` (stereo not given), the GI50 with A498, in the experiment with SK-MEL-28, in the experiment with CAKI-1, in the experiment on U-251, in the experiment with LOX IMVI and in the experiment with M14 was > 50 µM (inactive) in each case. In addition, the GI50 in the experiment with HCT-116 is > 50 µM (inactive); in the experiment with UACC-257, > 50 µM (inactive); with SF-295, 25.9 µM (inactive); in the experiment with A549, > 50 µM (inactive); in the experiment on SF-539, > 50 µM (inactive); with UO-31 it was > 50 µM (inactive). Further, the GI50 in the experiment on SR, with SF-268, in the experiment on NCI-H460, in the experiment with IGROV-1, in the experiment on NCI/ADR-RES and in the experiment with SK-OV-3 was > 50 µM (inactive) throughout.
